Data: patent US7598223B2, “Methods for producing target cell reactive lymphocytes” (The Board of Trustees of the Leland Stanford Junior …, priority 2004, dated 2009)
Values belong to the substance of their own block, whether it stands above or below them.

Legend:
[1] = test system: T2 cells; assay: Micro-cytotoxicity 51Cr-release assay with tetramer+/CD8+ cells sorted from PBMC of patient 422; assay type: cell-based, human; conditions: patient 422 G209-2M tetramer+ cells; peptide 1 μg/ml; 4 hours
Source text: Six patients with T cell responses specific for MART-1 or gp100 were selected for analysis. PBMC from each patient were stained with PE-conjugated peptide-MHC tetramers: G209-2M-tet PE or M26-tet PE, and co-stained with anti-CD8 FITC and anti-CD14, -CD19, and -CD4 Cy5PE. The plots shown are gated for CD14-, CD19-, and CD4-cells. Tetramer+/CD8+ cells are boxed. […] Micro-cytotoxicity ^51Cr-release assay with tetramer+/CD8+ cells isolated by FACS from the PBMC from patient 422. Isolated cells were assayed for lysis of T2 cells treated with relevant (G209-2M, G209n) or irrelevant (CMV) peptide, or mel 526 melanoma cells. Sorted cells were combined with 250 target cells at 13:1 E:T ratios for 4 hours and supernatants were assayed for percent specific release of radio-label.
Microcytotoxic assay: Cells were isolated directly from PBMC from patient 422 by FACS as described above. Cells were collected in microfuge tubes containing 1 ml ice cold 90% IMDM, with 10% FBS. Collected cells were washed and resuspended to 83,300 cells/ml in 90% IMDM, with 10% FBS. Targets were prepared as described above and resuspended to 8,300 cells/ml in 90% IMDM, with 10% FBS. […] Percent specific release of ^51Cr was calculated from 40 μl cell-free supernatant.

[2] = test system: T2 cells; assay: Determination of recognition efficiency (RE): 51Cr-release lysis of peptide-pulsed T2 targets by CTL clones; assay type: cell-based, human; conditions: for RE score (negative log10 of the peptide concentration required for 40% specific lysis): peptide-pulsed T2 cells, E:T ratio 10:1; for Mean RE (weighted): target cells pulsed with native peptide
Protocol: FIGS. 3A-3J. […] All assays were performed in triplicate and each clone was assayed twice. Error bars reflect variation between two separate assays. 3a.-c. CTL clones 476.105 and 132.1 were assayed for lysis of T2 cells pulsed with 10-fold dilutions of a. native or c. heteroclitc peptide at concentrations ranging from 100 fg/ml to 100 ng/ml. b. CTL clones 476.105 and 132.1 were assayed for lysis of Malme-3M melanoma cells. d.-e. […] Endogenous (461 and 132) and vaccine-induced (517, 520, 422 and 476) CTL clones were compared for RE in lysing target cells. f-g. […] Mean RE (weighted) for each response is indicated with horizontal bars. Weighted means were based on all clones, not only those assayed, and were estimated by summing the RE of each analyzed clone multiplied by the number of total clones expressing the same V-beta in each patient.
2. […] The E:T ratio was based upon live T and target cells. For each T cell clone, % cytotoxicity was plotted against peptide concentration. The peptide concentration at which the curve crosses 40% cytotoxicity was defined as the RE of that clone (Marguiles, Nat. Immunol. (2001) 2:669-670.
Similar RE assays were performed for the remaining clones from each patient selected for analysis. In order to compare REs of various CTL lines, each clone was assigned an RE score expressed as the negative log10 value of the peptide concentration required for 40% percent specific lysis at an E:T ratio of 10:1. […] We estimated the composite RE of the overall TAA-specific response (composed of a heterogeneous population of T cells) in vivo by summing the RE of each clone multiplied by its representation in the original mixture (the representation was estimated based on the proportion of TAA-specific cells expressing the same V-beta as the clone).

[3] = biological target: tetramer+ CD8+ T cells of patient 476 (their T cell receptors); assay: flow cytometry, tetramer staining of patient PBMC
[4] = biological target: tetramer+ CD8+ T cells of patient 132 (their T cell receptors); assay: flow cytometry, tetramer staining of patient PBMC
[5] = biological target: tetramer+ CD8+ T cells of patient 422 (their T cell receptors); assay: flow cytometry, tetramer staining of patient PBMC
[6] = biological target: tetramer+ CD8+ T cells of patient 461 (their T cell receptors); assay: flow cytometry, tetramer staining of patient PBMC
[7] = biological target: tetramer+ CD8+ T cells of patient 517 (their T cell receptors); assay: flow cytometry, tetramer staining of patient PBMC

Substance: ITDQVPSFV (SEQ ID NO:1) (syArtificial Sequence) [G209n, native G209n peptide; agonist]
- Lysis of peptide-pulsed T2 cells by directly isolated tetramer+ T cells [1]: specifically lysed
- RE score (negative log10 of the peptide concentration required for 40% specific lysis) ([2]; CTL clone 132.1): 11.1
- RE score (negative log10 of the peptide concentration required for 40% specific lysis) ([2]; CTL clone 476.105): 8.3
- Mean RE (weighted) ([2]; CTL clones of patient 132 (endogenous)): 11.2
- Mean RE (weighted) ([2]; CTL clones of patient 422 (vaccine-induced)): 9.7
- Mean RE (weighted) ([2]; CTL clones of patient 476 (vaccine-induced)): 9.9

Substance: ITAQVPSFV (SEQ ID NO:2) [G209-3A]
- Activation of G209-specific target cell lysis by T cell clones ([2]; any concentrations, data not shown): does not activate

Substance: IMDQVPSFV (SEQ ID NO:4) [G209-2M, heteroclitic peptide vaccine gp100 209-217 (210M), reference compound]
- Lysis of peptide-pulsed T2 cells by directly isolated tetramer+ T cells [1]: specifically lysed
- RE score (negative log10 of the peptide concentration required for 40% specific lysis) ([2]; CTL clone 132.1): 11.2
- RE score (negative log10 of the peptide concentration required for 40% specific lysis) ([2]; CTL clone 476.105): 11.2

- estimated percentage of total CD8+ cells that are also tetramer+/CD8+ [3]: 0.31%
- estimated percentage of total CD8+ cells that are also tetramer+/CD8+ [4]: 0.22%
- estimated percentage of total CD8+ cells that are also tetramer+/CD8+ [5]: 2.5%
Substance: HLA-A*0201/G209-2M peptide tetramer-phycoerythrin (from UniProt P61769 21-119) (peptide-MHC)

- estimated percentage of total CD8+ cells that are also tetramer+/CD8+ [6]: 0.5%
- estimated percentage of total CD8+ cells that are also tetramer+/CD8+ [7]: 0.23%
Substance: HLA-A*0201/M26 peptide tetramer-phycoerythrin (from UniProt P61769 21-119) (peptide-MHC)
